# In patent US20090247646A1, “USE OF RESVERATROL AND DERIVATIVES THEREOF FOR PROMOTING THE WELLNESS STATE IN MAMMALS” (priority 2006, published 2009):
# Tested on: gene expression in heart tissue
# Test: Genome-wide gene expression in heart tissue of old mice fed a resveratrol-supplemented diet (Affymetrix Mouse Genome 430 2.0 array)
# Format: in vivo
# [1] = ADP-ribosyltransferase 1, Genebank ID NM_009710
# [2] = Bcl2-associated athanogene 3, Genebank ID NM_013863
# [3] = DnaJ (Hsp40) homolog, subfamily A, member 3, Genebank ID AK004575
# [4] = DnaJ (Hsp40) homolog, subfamily A, member 4, Genebank ID NM_021422
# [5] = DnaJ (Hsp40) homolog, subfamily B, member 5, Genebank ID AI664344
# [6] = DnaJ (Hsp40) homolog, subfamily B, member 10, Genebank ID NM_020266
# [7] = F-box only protein 25, Genebank ID NM_025785
# [8] = F-box only protein 32, Genebank ID AF441120
# [9] = F-box protein 30, Genebank ID AK006369
# [10] = FK506 binding protein 7, Genebank ID NM_010222
# [11] = G protein-coupled receptor kinase 5, Genebank ID BC019379
# [12] = Hbs1-like (S. cerevisiae), Genebank ID AK012856
# [13] = Mus musculus similar to heart alpha-kinase (LOC381181), mRNA, Genebank ID AY044451
# [14] = Mus musculus transcribed sequences, Genebank ID AK004331
# [15] = No description found, Genebank ID BG976607
# [16] = O-linked N-acetylglucosamine (GlcNAc) transferase (UDP-N-acetylglucosamine:polypeptide-N-acetylglucosaminyl transferase), Genebank ID BG065325
# [17] = PTEN induced putative kinase 1, Genebank ID AF316872
# [18] = Stam binding protein, Genebank ID AK019907
# [19] = acid phosphatase 1, soluble, Genebank ID AW554436
smiles,measurement,setting,value
"Oc1ccc(/C=C/c2cc(O)cc(O)c2)cc1 [resveratrol, 3,4′,5-Trihydroxy-trans-stilbene]",Effect of resveratrol on changeing gene expression from old to young profile,"1448825_at pyruvate dehydrogenase kinase, isoenzyme 2",>100%
same,Effect of resveratrol on changeing gene expression from old to young profile,1448938_at replication protein A3,>100%
same,Effect of resveratrol on changeing gene expression from old to young profile,1449116_a_at deoxythymidylate kinase,>100%
same,Effect of resveratrol on changeing gene expression from old to young profile,1449334_at tissue inhibitor of metalloproteinase 3,>100%
same,Effect of resveratrol on changeing gene expression from old to young profile,1450008_a_at catenin beta,>100%
same,Effect of resveratrol on changeing gene expression from old to young profile,1450048_a_at vacuolar protein sorting 33B (yeast) [BLAST],>100%
same,Effect of resveratrol on changeing gene expression from old to young profile,"1450634_at ATPase, H+ transporting, V1 subunit A, isoform 1",>100%
same,Effect of resveratrol on changeing gene expression from old to young profile,"1450720_at acid phosphatase 1, soluble",>100%
same,Effect of resveratrol on changeing gene expression from old to young profile,"1450899_at neural precursor cell expressed, developmentally down-regulated gene 1",>100%
same,Effect of resveratrol on changeing gene expression from old to young profile,1451012_a_at cold shock domain protein A,>100%
same,Effect of resveratrol on changeing gene expression from old to young profile,1451148_at PTEN induced putative kinase 1,>100%
same,Effect of resveratrol on changeing gene expression from old to young profile,"1451249_at DNA segment, Chr 8, ERATO Doi 812, expressed",>100%
same,Effect of resveratrol on changeing gene expression from old to young profile,1452066_a_at Nedd4 family interacting protein 2,>100%
same,Effect of resveratrol on changeing gene expression from old to young profile,1452767_at ribosome binding protein 1,>100%
same,Effect of resveratrol on changeing gene expression from old to young profile,1452843_at interleukin 6 signal transducer,>100%
same,Effect of resveratrol on changeing gene expression from old to young profile,1453124_at transportin 3,>100%
same,Effect of resveratrol on changeing gene expression from old to young profile,1453129_a_at regulator of G-protein signaling 12,>100%
same,Effect of resveratrol on changeing gene expression from old to young profile,1454811_a_at tumor differentially expressed 2,>100%
same,Effect of resveratrol on changeing gene expression from old to young profile,"1454837_at ceroid-lipofuscinosis, neuronal 6",>100%
same,Effect of resveratrol on changeing gene expression from old to young profile,"1454848_at protein phosphatase 1, regulatory (inhibitor) subunit 12C [BLAST]",>100%
same,Effect of resveratrol on changeing gene expression from old to young profile,1454974_at syntaxin 8,>100%
same,Effect of resveratrol on changeing gene expression from old to young profile,1455182_at kinesin family member 1B,>100%
same,Effect of resveratrol on changeing gene expression from old to young profile,1455506_at Mus musculus transcribed sequences,>100%
same,Effect of resveratrol on changeing gene expression from old to young profile,1455702_at WD repeat domain 22,>100%
same,Effect of resveratrol on changeing gene expression from old to young profile,1460028_at Mus musculus transcribed sequences,>100%
same,Effect of resveratrol on changeing gene expression from old to young profile,1460174_at dexamethasone-induced transcript,>100%
same,Effect of resveratrol on changeing gene expression from old to young profile,"1460199_a_at platelet-activating factor acetylhydrolase, isoform 1b, beta1 subunit",>100%
same,% of res effect,[1],108.0103%
same,Median RES,[1],87939
same,% of res effect,[2],131.9726%
same,Median RES,[2],67398
same,% of res effect,[3],67.85%
same,Median RES,[3],30553
same,% of res effect,[4],61.28%
same,Median RES,[4],20850
same,% of res effect,[5],157.0689%
same,Median RES,[5],17969
same,% of res effect,[6],124.1691%
same,Median RES,[6],29661
same,number of genes changed by resveratrol,Effect 60-70%,39
same,number of genes changed by resveratrol,Effect 70-80%,48
same,number of genes changed by resveratrol,Effect 80-90%,52
same,number of genes changed by resveratrol,Effect 90-100%,62
same,number of genes changed by resveratrol,Effect <60%,44
same,number of genes changed by resveratrol,Effect >100% (expression in resveratrol-fed old mice as percentage of untreated young mice),340
same,% of res effect,[7],80.27%
same,Median RES,[7],11530
same,% of res effect,[8],104.0857%
same,Median RES,[8],35761
same,% of res effect,[9],58.67%
same,Median RES,[9],6641
same,% of res effect,[10],196.8163%
same,Median RES,[10],33928
same,% of res effect,[11],80.42%
same,Median RES,[11],37493
same,% of res effect,[12],74.36%
same,Median RES,[12],9115
same,% of res effect,[13],190.8585%
same,Median RES,[13],21847
same,% of res effect,[14],105.9%
same,Median RES,[14],38260
same,% of res effect,[15],69.74%
same,Median RES,[15],9370
same,% of res effect,[16],125.3946%
same,Median RES,[16],2989
same,% of res effect,[17],147.4853%
same,Median RES,[17],116921
same,% of res effect,[18],230.3846%
same,Median RES,[18],13590
same,number of genes changed by resveratrol,Sum,585
same,% of res effect,[19],349.7466%
same,Median RES,[19],34652
same,number of genes that resembled or exceeded the expression level of the young group,"among genes changed by resveratrol treatment, heart",342
